Laboratory results: publication PMC3793931 (PLoS ONE, 2013)
Read-outs that look alike come from different tables or passages of the source.

Key:
5-LO = conditions: cited from earlier work
human recombinant 5-LO = molecular target: T1, human recombinant 5-LO (Homo sapiens, UniProt P09917); experiment: cell-free 5-LO activity assay with purified human recombinant 5-LO
T1 sequence (P09917 1-674): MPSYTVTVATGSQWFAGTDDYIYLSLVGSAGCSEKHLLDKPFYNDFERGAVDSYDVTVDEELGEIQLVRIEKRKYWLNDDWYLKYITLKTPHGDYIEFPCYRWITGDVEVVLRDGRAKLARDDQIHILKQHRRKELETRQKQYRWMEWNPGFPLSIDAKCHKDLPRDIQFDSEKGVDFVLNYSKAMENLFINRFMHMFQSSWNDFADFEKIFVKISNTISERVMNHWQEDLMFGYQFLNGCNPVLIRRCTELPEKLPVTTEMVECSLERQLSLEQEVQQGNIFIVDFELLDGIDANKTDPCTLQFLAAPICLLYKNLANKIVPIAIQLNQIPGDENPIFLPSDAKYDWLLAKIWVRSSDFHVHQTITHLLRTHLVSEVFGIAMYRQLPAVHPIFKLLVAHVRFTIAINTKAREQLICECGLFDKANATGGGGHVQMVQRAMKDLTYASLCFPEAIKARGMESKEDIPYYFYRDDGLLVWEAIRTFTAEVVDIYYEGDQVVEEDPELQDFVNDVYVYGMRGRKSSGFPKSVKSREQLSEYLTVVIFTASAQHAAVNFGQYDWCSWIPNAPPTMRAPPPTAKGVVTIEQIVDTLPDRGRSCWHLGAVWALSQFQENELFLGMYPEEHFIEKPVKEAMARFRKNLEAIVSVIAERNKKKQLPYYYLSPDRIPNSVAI

[1] = molecular target: T2, microsomal prostaglandin E2 synthase-1 (mPGES-1) (Homo sapiens, UniProt O14684); experiment: biochemical; conditions: cell-free, A549 microsomes; n=3; >10 = significant inhibition at 10 µM, >>10 = no significant inhibition at 10 µM
T2 sequence (O14684 1-152): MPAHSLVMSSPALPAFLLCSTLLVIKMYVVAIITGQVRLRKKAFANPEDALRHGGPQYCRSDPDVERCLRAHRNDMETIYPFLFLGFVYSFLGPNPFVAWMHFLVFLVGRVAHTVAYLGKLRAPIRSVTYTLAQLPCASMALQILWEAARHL
Description: Preparations of human A549 cells and determination of mPGES-1 activity was performed as described previously [10]. In brief, cells were treated with 1 ng/mL interleukin-1β (IL-1β) for 48 h at 37 °C, 5% CO2. Cells were harvested, sonicated and the homogenate was subjected to differential centrifugation at 10,000×g for 10 min and 174,000×g for 1 h at 4 °C. The pellet (microsomal fraction) was resuspended in 1 ml homogenization buffer (0.1 M potassium phosphate buffer, pH 7.4, 1 mM phenylmethanesulfonyl fluoride, 60 µg/mL soybean trypsin inhibitor, 1 µg/mL leupeptin, 2.5 mM glutathione, and 250 mM sucrose), and the total protein concentration was determined. Microsomal membranes were diluted in potassium phosphate buffer (0.1 M, pH 7.4) containing 2.5 mM glutathione. Test compounds or vehicle (0.1% DMSO) were added, and after 15 min at 4 °C reaction (100 µl total volume) was initiated by addition of PGH2 at the indicated concentrations. After 1 min at 4 °C, the reaction was terminated using stop solution (100 µl; 40 mM FeCl2, 80 mM citric acid, and 10 µM 11β-PGE2 as internal standard). PGE2 was separated by solid-phase extraction and analyzed by RP-HPLC as described previously [10].

5-LO in PMNL = molecular target: T3, 5-LO in PMNL (Homo sapiens, UniProt P09917); experiment: cell-based; conditions: intact human PMNL, A23187 2.5 µM + 20 µM AA, n=3, >10 = significant inhibition at 10 µM, >>10 = no significant inhibition at 10 µM
T3 sequence (P09917 1-674): T1 sequence (P09917 1-674)
Description: The blood was centrifuged at 4,000×g for 20 min at 20°C for preparation of leukocyte concentrates. Leukocyte concentrates were subjected to dextran sedimentation and centrifugation on LSM 1077 cushions (PAA Laboratories, Linz, Austria). Contaminating erythrocytes of pelleted PMNL were lysed by hypotonic lysis. PMNL were washed twice in ice-cold PBS and finally resuspended in PBS pH 7.4 containing 1 mg/mL glucose and 1 mM CaCl2 (PGC buffer) (purity > 96-97%).
For determination of LO products in intact PMNL (5 × 10^6), cells were resuspended in 1 mL PGC buffer, preincubated for 15 min at 37°C with test compounds or vehicle (0.1% DMSO), and incubated for 10 min at 37°C with the indicated stimuli. Thus, the Ca^2+-ionophore A23187 (2.5 µM) was added together with 20 µM AA and 10 min later the reaction was stopped on ice by addition of 1 mL of ice-cold methanol. Then, 30 µL 1 N HCL and 500 µL PBS, and 200 ng prostaglandin B1 were added and the samples were subjected to solid phase extraction on C18-columns (100 mg, UCT, Bristol, PA, USA). 5-LO products (LTB4 and its trans-isomers and 5-H(P)ETE) were analyzed by RP-HPLC and quantities calculated on the basis of the internal standard PGB1.

COX-2 = system: COX-2; parameters: method as in PMID 19289158; conditions: at 45 µM; cited from earlier work
NF-κB = NF-κB transactivation, luciferase reporter in TNF-α-stimulated HEK-293/NF-κB-luc cells; type: cell-based; conditions: Homo sapiens
Description: The transactivation of a NF-κB-driven luciferase reporter gene was quantified in HEK-293/NF-κB-luc cells (Panomics, RC0014) as previously described. […] Six hours later cells were seeded in 96-well plates and incubated at 37°C and 5% CO2 overnight. On the next day, the medium was exchanged with serum-free DMEM and cells were treated with the respective test compounds dissolved in DMSO. To account for potential unspecific effects of the solvent, the final concentration of DMSO was always adjusted to 0.1%. One hour after treatment the cells were stimulated with 2 ng/mL human recombinant TNF-α for 6 h, and after a lysis step the luminescence of the firefly luciferase and the fluorescence of EGFP were quantified on a GeniosPro plate reader (Tecan; Grödig, Austria). The luciferase signal derived from the NF-κB reporter was normalized by the EGFP-derived fluorescence to account for differences in cell number.
To estimate of cell viability one part of the experiments were performed in cells that were not transfected with pEGFP-C1, but instead stained for 1 h in serum-free medium supplemented with 2 μM Cell Tracker Green CMFDA (C2925; Invitrogen) as described. Since this fluorescent probe is retained inside living cells, it can be used to monitor cell membrane integrity and thus has been broadly used to quantify viable cells. For quantification of NF-κB activity in this experimental setting the luciferase-derived signal from the NF-κB reporter was normalized to the Cell Tracker Green CMFDA-derived fluorescence to account for differences in cell number. Potential differences in cell viability were monitored by comparison of the Cell Tracker Green CMFDA fluorescence of the solvent vehicle treated control cells and cells treated with the indicated compounds.

COX-1 = system: COX-1; parameters: method as in PMID 19289158; conditions: at 45 µM; cited from earlier work
[2] = molecular target: T4, inhibitor of NF-κB kinase subunit beta (IKK2) (Homo sapiens, UniProt O14920); experiment: IKK2 kinase inhibition; type: biochemical; conditions: at a concentration of up to 50 μM; data not shown
T4 sequence (O14920 1-756): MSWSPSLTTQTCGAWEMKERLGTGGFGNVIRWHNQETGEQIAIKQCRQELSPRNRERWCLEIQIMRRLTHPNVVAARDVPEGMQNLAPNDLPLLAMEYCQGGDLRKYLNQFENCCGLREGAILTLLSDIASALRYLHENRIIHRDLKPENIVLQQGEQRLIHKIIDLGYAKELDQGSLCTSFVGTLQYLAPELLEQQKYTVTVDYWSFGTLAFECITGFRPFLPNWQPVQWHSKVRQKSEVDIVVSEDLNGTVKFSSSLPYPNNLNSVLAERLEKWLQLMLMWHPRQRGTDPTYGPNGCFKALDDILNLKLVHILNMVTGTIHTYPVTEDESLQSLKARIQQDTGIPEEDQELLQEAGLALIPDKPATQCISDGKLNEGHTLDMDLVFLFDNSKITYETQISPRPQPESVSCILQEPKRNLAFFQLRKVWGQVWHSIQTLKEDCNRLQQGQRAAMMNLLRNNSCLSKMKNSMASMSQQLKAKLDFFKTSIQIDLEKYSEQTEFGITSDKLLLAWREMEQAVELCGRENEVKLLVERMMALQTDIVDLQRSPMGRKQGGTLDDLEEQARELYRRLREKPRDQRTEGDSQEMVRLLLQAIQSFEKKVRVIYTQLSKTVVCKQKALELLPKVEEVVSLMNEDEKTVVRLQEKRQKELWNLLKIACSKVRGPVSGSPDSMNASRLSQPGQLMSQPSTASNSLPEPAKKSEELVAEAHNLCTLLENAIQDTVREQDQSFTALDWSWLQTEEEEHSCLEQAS
Text: Luciferase reporter gene expression reflects a downstream event of the NF-κB signaling cascade and cannot provide insights into the molecular targets contributing to the observed NF-κB inhibition. Thus, we tested the active compounds 4 and 5 for their potential to suppress the activity of the inhibitor of NF-κB kinase subunit beta (IKK2) as previously described, since it is a prominent upstream target of the NF-κB signaling cascade. […] Accordingly, this kinase is not a direct target of the NF-κB inhibiting depsides 4 and 5.

UACC-62 melanoma cells = conditions: cited from earlier work
B16-F10 melanoma cells = conditions: cited from earlier work
[3] = system: leukocyte recruitment to the peritoneum; experiment: thioglycollate-induced peritonitis, leukocyte count in peritoneal lavage; type: in vivo, C57BL/6J mice; conditions: mouse
Text: C57BL/6J male, 8-9 weeks old mice were housed in individually ventilated cages and fed with mouse chow and acidified water ad libitum in the mouse facility of the Institute of Vascular Biology and Thrombosis Research (Vienna, Austria). Animal care and all experimental procedures were approved by the Animal Experimental Committee of the Medical University of Vienna and by the Austrian Ministry of Science (license no. BMWF-66.009/0117-II/3b/2012).
The mice of the treatment groups – sterile thioglycollate and perlatolic acid or thioglycollate alone - (3 animals per group) were pre-treated i.p. with 1 mL of 6 µM perlatolic acid or 1 µL of DMSO dissolved in 1 mL of saline. Thirty minutes later the animals were injected i.p. with another 3 mL of saline with or without sterile thioglycollate (4%), and containing again 2 μL DMSO or perlatolic acid. Five hours after the second injection mice were sacrificed by carbon dioxide exposure and peritoneal cavities were washed three times with 2 mL of cold PBS containing 3 mM EDTA and collected as intra-peritoneal lavage. The leukocyte count in the peritoneum of untreated control mice was assessed by lavage. Mice without thioglycollate treatment were used as controls. The volume of the collected lavage was measured and the cell count determined by haemocytometer.

12-LO = system: 12-LO; parameters: method as in PMID 15636173; conditions: cited from earlier work
[4] = HEK293, TNF-α-stimulated HEK-293/NF-κB-luc cells, n=3, read-out: NF-κB IC50

SMILES | IC50 (human recombinant 5-LO) [µM] | IC50 [1] [µM] | IC50 (5-LO in PMNL) [µM] | other results
COc1cc(C)c(C(=O)Oc2cc(C)c(C(=O)O)c(O)c2C)c(O)c1C=O [baeomycesic acid] |  |  |  | IC50 (5-LO; read-out: 5-LO IC50): 8.3 µM
CCOC(=O)c1c(C)cc(O)c(C=O)c1O [compound 1, ethyl haematommate] | 7.6 | > 10 | > 10 | 
COC(=O)c1c(C)cc(O)c(C)c1O [compound 2, methylbetaorcinolcarboxylate] | > 10 | > 10 | > 10 | 
COC(=O)c1c(C)cc(OC(=O)c2c(C)cc(O)c(C=O)c2O)c(C)c1O [compound 3, atranorin] | > 10 | > 10 | > 10 | COX-2 inhibition (COX-2): ~45%; activity against 5-LO (5-LO): inactive; IC50 (NF-κB; [4]): 20 µM; COX-1 inhibition (COX-1): ~45%
CCCCCc1cc(OC)cc(O)c1C(=O)Oc1cc(O)c(C(=O)O)c(CCC)c1 [compound 4, imbricaric acid] | 3.5 | 1.9 | 5.3 | IC50 (NF-κB; HEK293, read-out: NF-κB IC50): 2 µM; IKK2 inhibition [2]: did not inhibit IKK2
CCCCCc1cc(OC(=O)c2c(O)cc(OC)cc2CCCCC)cc(O)c1C(=O)O [compound 5, perlatolic acid] | 0.4 | 0.4 | 1.8 | IC50 (NF-κB; [4]): 7 µM; cytotoxicity on UACC-62 melanoma cells (UACC-62 melanoma cells): moderate selective cytotoxicity; IKK2 inhibition [2]: did not inhibit IKK2; cytotoxicity on B16-F10 melanoma cells (B16-F10 melanoma cells): moderate selective cytotoxicity; reduction of thioglycollate-induced increase in total leukocyte count in peritoneal lavage fluid ([3]; i.p. co-administration, 5 h after TG injection, n=3, p<0.05): 30-40%; toxic effects observed in the animals ([3]; i.p., acute inflammation model): no hints of toxic effects
CCCCCc1cc(OC)cc(O)c1C(=O)O [compound 6, 4-O-metylolivetolcarboxylic acid] | > 10 | > 10 | > 10 | 
CCCCCc1cc(OC)cc(O)c1C(=O)OCC [compound 7, ethyl-4-O-methylolivetolcarboxylate] | > 10 | > 10 | > 10 | 
CCCCCc1cc(O)cc(O)c1C(=O)OCC [compound 8, ethyl olivetolate] | > 10 | > 10 | 6.8 | 
CCCCCc1cc(O)cc(OC)c1 [compound 9, olivetolmonomethylether] | 7.2 | > 10 | > 10 | 
CCCCCc1cc(O)cc(O)c1 [compound 10, olivetol] |  | > 10 | > 10 | 
CCCc1cc(O)cc(O)c1 [compound 11, divarinol] |  | > 10 | > 10 | 
CCCCCc1c2c(cc(O)c1C(=O)O)OC(=O)c1c(cc(OC)cc1C(=O)CCCC)O2 [lobaric acid] |  |  |  | IC50 (5-LO; read-out: 5-LO IC50): ≥ 28.5 µM; IC50 (12-LO): ≥ 28.5 µM
C=C1C(=O)O[C@H]2[C@H]1CC/C(C)=C/CC[C@@]1(C)O[C@@H]21 [parthenolide, reference compound] |  |  |  | IC50 (NF-κB; [4]): 1.5 µM
